Patent EP0340171A2, “Cyclodextrin complexes of 5-aminohexahydropyrimidine compounds” (WARNER-LAMBERT COMPANY, priority 1988, dated 1989)
Entries after “also recorded” stand apart in the source; their conditions may differ.

Assays:
[1] = solubility in deionized water; type: physicochemical
Procedure: When complexed with beta-cyclodextrin the solubility increases to about 10 mg hexetidine (contained in about 43 mg of complex) in about 10 ml of water -- without the addition of any alcohol or any surfactant. This is an increase from about 0 to about 0.1% w/v in solubility. The complex, 43 mg, was dissolved in 10 ml of deionized water at about 50°C using vortexing. The complex, assayed by UV to be a 1:1 complex of hexetidine: beta-cyclodextrin, contains 10 mg of hexetidine in the 43 mg of complex, and therefore, a 0.1% w/v solution of hexetidine was made. The solution of the 43 mg of complex in 10 ml of water was clear.

[2] = cited from earlier work

## CCCCC(CC)CN1CN(CC(CC)CCCC)CC(C)(N)C1 (centres unmarked) [hexetidine, 5-amino-1,3 bis(2-ethylhexyl)-5-methyl-hexahydropyrimidine]
[1]; 10 mg hexetidine, alone or as 43 mg of complex, in 10 ml of water
  solubility in water (in words): virtually insoluble in water; also recorded: did not dissolve
[1]; water, no ethanol and no surfactant
  solubility (hexetidine in aqueous solution): about 0 % w/v
[2]; about 9.5% v/v ethanol and about 0.7% v/v of surfactant (e.g., TWEEN 80)
  solution of hexetidine in known in the art compositions: ~0.1 % w/v
[2]; ethanol
  solubility in ethanol: soluble in ethanol
[2]; water
  solubility in water: practically insoluble in water
